From publication PMC9818988, “SR Protein Kinase 1 Inhibition by TAF15” (Cells, 2022)
Each block holds one molecule with its values, some of them ahead of it.

What was measured:
SRPK1 [1] = test: In vitro kinase inhibition assay: phosphorylation of GST-LBRNt(62–92) by GST-SRPK1; type: biochemical; settings: for Inhibition of SRPK1 activity (phosphorylation of GST-LBRNt(62–92) by GST-SRPK1): peptide 0.1, 0.2, 0.3, 0.4 and 0.5 mM, 25 μM ATP, autoradiography, bands counted, means ± SE of two independent experiments (Figure 8); for Inhibition of SRPK1 activity (phosphorylation of GST-LBRNt(62–92) by GST-SRPK1) / Effect of TAF15 fusion proteins on SRPK1 activity (phosphorylation of GST-LBRNt(62–92)): 30 °C, 30 min; for Effect of TAF15 fusion proteins on SRPK1 activity (phosphorylation of GST-LBRNt(62–92)): 1, 2, 4, 6, 8 μg GST-TAF15, 1.5, 3, 6, 10, 15 μg GST-TAF15-RGG, 2, 4, 8, 12, 16 μg GST-TAF15(1-320), 25 μL, [γ-32P]ATP, Cherenkof counting, two independent experiments; for Relative inhibitory activity on SRPK1 among the three RGG peptides (proportional to number of RGG repeats): peptide 0.1–0.5 mM, substrate GST-LBRNt(62–92), two independent experiments (Figure 8B)
Procedure: (§1) Kinase assays were carried out at 30 °C in a total volume of 25 μL containing 12 mM Hepes pH 7.5, 10 mM MgCl2, 25 μM ATP, 1–3 μg of the appropriate substrate (GST-LBRNt(62–92) or GST-TAF15 or His-TAF15), and 1–2 μg GST-SRPK1. For the inhibition assays, GST-SRPK1 was incubated with GST-LBRNt(62–92) under the assay conditions in the presence of increasing concentrations of GST-TAF15, GST-TAF15-RGG, and GST-TAF15(1–320) or Nucl, SAFA, and A2B1 peptides, as indicated. Nucl ([…]), SAFA ([…]) and A2B1 ([…]) peptides, comprising the RGG repeats of nucleolin, HNRPU (SAFA), and HNRNPA2B1, respectively, were provided by GeneCust, Boynes, France. The samples were incubated for 30 min, and the reaction was stopped by adding 6 μL of 5 × SDS sample buffer and heating at 95 °C for 3 min. Phosphoproteins were detected via autoradiography using Super RX (a Fuji medical X-ray film), and signals were quantified by excising the radioactive bands from the gel and scintillation counting. p-values were determined using a two-tailed, unpaired student’s t-test.

SRPK1 [2] = test: Pull-down of SRPK1 from HeLa cell extracts with immobilized GST-TAF15 fusion proteins; type: binding; settings: 150 mM NaCl, 1% Triton X-100, 60 min, room temperature; Western blot with anti-SRPK1
Procedure: Incubation of GST, GST-TAF15, GST-TAF15(1–320), and GST-TAF15-RGG (2–3 μg each) immobilized on glutathione-Sepharose beads with HeLa cell extracts (∼200 μg of total protein) was performed in 50 mm Tris-HCl, pH 7.5, 150 mm NaCl, 1% Triton X-100, and 0.5 mm PMSF (cell extraction buffer) in a total volume of 0.5 mL for 60 min at room temperature. Bound SRPK1 was analyzed on 10% SDS-polyacrylamide gels and detected by Western blotting using the anti-SRPK1 monoclonal antibody (611072, BD Biosciences, San Jose, CA, USA), an alkaline phosphatase-coupled goat anti-mouse secondary antibody, and a 5-bromo-4-chloro-3-indolyl phosphate/nitro blue tetrazolium substrate.

SRPK1 [3] = test: In vitro phosphorylation of TAF15 as substrate by GST-SRPK1; type: biochemical; settings: bacterially produced GST-SRPK1; GST-LBRNt(62–92) as positive substrate; autoradiography
Procedure: as §1

SRPK1 [4] = test: Pull-down of His-TAF15 with GST-SRPK1 immobilized on glutathione-Sepharose beads; type: binding; settings: 60 min, room temperature, Coomassie blue staining
Procedure: Incubation of GST and GST-SRPK1 (2–3 μg each) immobilized on glutathione-Sepharose beads with His-TAF15 (2 μg) was performed in 20 mm Hepes, pH 7.5, 50 mM NaCl, and 1% Triton X-100 in a total volume of 0.5 mL. Similar incubations were also performed in the presence of 150 and 300 mM NaCl to test the stringency of the interaction. The incubations were carried out for 60 min at room temperature. The beads were harvested, washed three times with 500 μL of binding buffer, and resuspended in 25 μL of SDS sample buffer. Bound His-TAF15 was analyzed on 10% SDS-polyacrylamide gels and detected by Coomassie Blue staining.

Inhibition of SRPK1 activity (phosphorylation of GST-LBRNt(62–92) by GST-SRPK1) (SRPK1 [1]): could inhibit SRPK1
Molecule: RGGGHRGRGGFNMRGGNFRGGAPGNRGGY [SAFA, peptide comprising the RGG repeats of HNRPU (SAFA), provided by GeneCust]

Molecule: GST-TAF15-RGG: C-terminal RGG domain (aa 319–589) of TAF15 as GST-fusion protein
Effect of TAF15 fusion proteins on SRPK1 activity (phosphorylation of GST-LBRNt(62–92)) (SRPK1 [1]): inhibited SRPK1 as potently as full-length TAF15 | Binding of SRPK1 from HeLa cell extracts to immobilized GST fusion protein (SRPK1 [2]): could bind to SRPK1

Inhibition of SRPK1 activity (phosphorylation of GST-LBRNt(62–92) by GST-SRPK1) (SRPK1 [1]): could inhibit SRPK1 | Relative inhibitory activity on SRPK1 among the three RGG peptides (proportional to number of RGG repeats) (SRPK1 [1]): most potent inhibitory activity
Molecule: RGGGRGGFGGRGGGRGGRGGFGGRGRGGFGGRGGFRGGRGG [Nucl, peptide comprising the RGG repeats of nucleolin, provided by GeneCust]

Molecule: GST-TAF15: full-length TAF15 as GST-fusion protein produced in bacteria
Phosphorylation of TAF15 by SRPK1 (substrate test) (SRPK1 [3]): did not modify | Effect of TAF15 fusion proteins on SRPK1 activity (phosphorylation of GST-LBRNt(62–92)) (SRPK1 [1]): inhibited the phosphorylation of GST-LBRNt(62–92) in a dose-responsive manner

Binding of TAF15 to GST-SRPK1 in pull-down (SRPK1 [4]; increased salt, 0.3 M NaCl): reduced binding | Binding of TAF15 to GST-SRPK1 in pull-down (SRPK1 [4]; physiological ionic strength, 50–150 mM NaCl): binds SRPK1
Molecule: His-TAF15: full-length TAF15 with an 8xHis tag fused to its N-terminus
Phosphorylation of TAF15 by SRPK1 (substrate test) (SRPK1 [3]): unable to phosphorylate

Inhibition of SRPK1 activity (phosphorylation of GST-LBRNt(62–92) by GST-SRPK1) (SRPK1 [1]): could inhibit SRPK1 | Relative inhibitory activity on SRPK1 among the three RGG peptides (proportional to number of RGG repeats) (SRPK1 [1]): weaker
Molecule: RGGNFGFGDSRGGGGNFGPGPGSNFRGG [A2B1, peptide comprising the RGG repeats of HNRNPA2B1, provided by GeneCust]

Effect of TAF15 fusion proteins on SRPK1 activity (phosphorylation of GST-LBRNt(62–92)) (SRPK1 [1]): did not affect the kinase activity | Effect of TAF15 fusion proteins on SRPK1 activity (phosphorylation of GST-LBRNt(62–92)) (SRPK1 [1]; listed as GST-TAF15(1-320)): has no effect on SRPK1 activity
B1: GST-TAF15(1–320): N-terminal part (aa 1–320) of TAF15 as GST-fusion protein (protein)
chain: MSDSGSYGQSGGEQQSYSTYGNPGSQGYGQASQSYSGYGQTTDSSYGQNYSGYSSYGQSYSQSYGGYENQKQSSYSQQPYNNQGQQQNMESSGSQGGRAPSYDQPDYGQQDSYDQQSGYDQHQGSYDEQSNYDQQHDSYSQNQQSYHSQRENYSHHTQDDRRDVSRYGEDNRGYGGSQGGGRGRGGYDKDGRGPMTGSSGGDRGGFKNFGGHRDYGPRTDADSESDNSDNNTIFVQGLGEGVSTDQVGEFFKQIGIIKTNKKTGKPMINLYTDKDTGKPKGEATVSFDDPPSAKAAIDWFDGKEFHGNIIKVSFATRRPE
modifications: left off: GST, end not stated, kept
notes: N-terminal part (aa 1–320) of TAF15 as GST-fusion protein
Binding of SRPK1 from HeLa cell extracts to immobilized GST fusion protein (SRPK1 [2]): no such interaction
